This note sets out measurements from patent US4024276A, “Xanthone-2-carboxylic acid compounds” (Roussel-UCLAF, priority 1974, dated 1977).

The first assay deals with cutaneous anaphylaxis. Description: Passive cutaneous anaphylaxis in rats (method of Ovary), anti-allergic activity. The conditions noted are these: Rattus norvegicus; male rats 180-220 g; intravenous, followed immediately by antigen/Evans blue challenge; anti-ovalbumin antiserum ID 3 days before; compounds used as tris(hydroxymethyl)methylamine salts; read-out: ED50 (dose of drug giving 50% inhibition). Type of assay: in vivo, rat. The procedure: Evans blue dye was injected with the antigen to act as a marker to assess the severity of the local response which is inhibited by anti-allergic compounds. Groups of 7 male rats weighing 180 to 220 g were used in this test.
Preparation of antigen for sensitization (such as alum precipitated ovalbumin) was effected by washing 120 grams of Al(OH)3 gel in 140 mls of saline solution (use of a macerator facilitates mixing). Then, the product was centrifuged at 3,000 r.p.m. for about 10 minutes and the precipitate was responded with 300 mls of albumin egg powder (1.3 mg/ml) in saline solution and allowed to stand for 30 minutes. Then, the mixture was centrifuged at 3,000 r.p.m. for 10 minutes and the wet precipitate was weighed and to each gram weight 1 ml of saline solution was added. The antigen was stored in the refrigerator and was a quantity sufficient for 60 rats for a 3 day sensitization program.
Preparation of antiserum (such as anti-ovalbumin) was effected by injecting 1 ml of the alum precipitated ovalbumin subcutaneously into the rats on days 0, 2 and 4. The rats were bled on day 14 either by cardiac puncture or via the dorsal abdominal aorta and equal quantities of serum from each animal were pooled and thoroughly mixed. 2 ml aliquots were stored at -20° C in plastic tubes.
For sensitization, rats were anaesthetized with Nembutal (40-60 mg/kg i.p.) and were then sensitized by four ID injections (0.1 ml each) on their shaved backs. The animals were then left for a period of three days to develop sensitization.
For the challenge, the sensitized rats were anaesthetized and challenged intravenously via the superficial penile vein with the anti-allergic compound, followed immediately by 1 ml of an antigen/Evans blue mixture (1 mg albumin egg powder in 0.5 ml saline solution plus 0.5 ml of 1% Evans blue). The injections were speeded up by using an automatic 1 ml self filling glass syringe. The "challenged" rats were killed after 30 minutes and their skin on the dorsal surface was removed. The degree and area of blueing, proportional to the anaphylactic reaction, was assessed on a four point scoring system as follows:
1. Total scores for sites, 1, 2, 3 and 4 = X
2. Mean value of X for each group = X
3. X t = X for test group X c = X for control group [formula]
Usually ED50 stands for the midpoint of the dose-response relation. For the compound `CCCCCOc1cc(S(C)(=N)=O)cc2c(=O)c3cc(C(=O)O)ccc3oc12` (stereo not shown) [7-(S-methylsulfonimidoyl)-5-(n-pentyloxy)-xanthone-2-carboxylic acid], the ED50 came to 0.0035 mg/kg.
On the same count and under the same terms, under `CS(=O)(=NC(=O)c1ccccc1)c1ccc2oc3ccc(C(=O)O)cc3c(=O)c2c1` (stereo not shown) [7-(N-benzoyl-S-methylsulfonimidoyl)-xanthone-2-carboxylic acid] stands 0.68 mg/kg.
For `CC(=O)N=S(C)(=O)c1ccc2oc3ccc(C(=O)O)cc3c(=O)c2c1` (stereo not shown) [7-(N-acetyl-S-methylsulfonimidoyl)-xanthone-2-carboxylic acid], the ED50 was determined as 0.065 mg/kg.
The same measure, in the same setting: in the case of `CCCCCCc1cc(S(C)(=O)=NC(N)=O)cc2c(=O)c3cc(C(=O)O)ccc3oc12` (stereo not shown) [7-(N-carbamoyl-S-methylsulfonimidoyl)-5-(n-hexyl)-xanthone-2-carboxylic acid] it was 0.008 mg/kg; in that of `Cc1ccc(S(=O)(=O)N=S(C)c2ccc3oc4ccc(C(=O)O)cc4c(=O)c3c2)cc1` (stereo not shown) [7-[N-(p-toluenesulfonyl)-S-methylsulfimidoyl]-xanthone-2-carboxylic acid], 0.43 mg/kg.
Still for that read-out and setting: under `CCCCCCc1cc(S(C)(=N)=O)cc2c(=O)c3cc(C(=O)O)ccc3oc12` (stereo not shown) [7-(S-methylsulfonimidoyl)-5-(n-hexyl)-xanthone-2-carboxylic acid] stands 0.0028 mg/kg.

The same assay, now with this note: male rats 180-220 g; intravenous, followed immediately by antigen/Evans blue challenge; anti-ovalbumin antiserum ID 3 days before; compounds used as tris(hydroxymethyl)methylamine salts.
As for `CS(=N)(=O)c1ccc2oc3ccc(C(=O)O)cc3c(=O)c2c1` (stereo not shown) [7-(S-methylsulfonimidoyl)-xanthone-2-carboxylic acid], the “ED50 (dose of drug giving 50% inhibition)” value came out at 0.033 mg/kg.
